Results taken from the supplement of paper PMC10307832.

Key:
Test in all cases: relative viability (nuclei count vs DMSO), 5 days (fraction); higher = more cells survive
Sulindac + Navitoclax = compound: CC1=C(CC(=O)O)c2cc(F)ccc2/C1=C\c1ccc([S+](C)[O-])cc1 [Sulindac] + CC1(C)CCC(c2ccc(Cl)cc2)=C(CN2CCN(c3ccc(C(=O)NS(=O)(=O)c4ccc(N[C@H](CCN5CCOCC5)CSc5ccccc5)c(S(=O)(=O)C(F)(F)F)c4)cc3)CC2)C1 [Navitoclax] (partner 0.5 µM)
Summary of the method: (§1)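 Medians of duplicate plates are given as relative viability. That measure is the nuclei count in treated wells divided by the count in vehicle wells. Counts were taken on 4× images of lung cancer cell lines in 1536-well plates, 5 days after pin-tool dosing the day after seeding with one drug alone or a fixed anchor-drug dose plus five library-drug doses (not always all listed) in √10 steps.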

[1] = compound: O=c1[nH]cc(F)c(=O)[nH]1 [5-Fluorouracil] + CC1(C)CCC(c2ccc(Cl)cc2)=C(CN2CCN(c3ccc(C(=O)NS(=O)(=O)c4ccc(N[C@H](CCN5CCOCC5)CSc5ccccc5)c(S(=O)(=O)C(F)(F)F)c4)cc3)CC2)C1 [Navitoclax] (partner 0.5 µM)
Summary of the method: as §1

[2] = compound: O=c1[nH]cc(F)c(=O)[nH]1 [5-Fluorouracil] + Cc1cc(Nc2cc(N3CCN(C)CC3)nc(Sc3ccc(NC(=O)C4CC4)cc3)n2)n[nH]1 [Tozasertib] (partner 0.1 µM)
Summary of the method: as §1

[3] = compound: O=c1[nH]cc(F)c(=O)[nH]1 [5-Fluorouracil] + Cc1nc(NC(=O)N2CCC[C@H]2C(N)=O)sc1-c1ccnc(C(C)(C)C(F)(F)F)c1 [Alpelisib] (partner 2 µM)
Summary of the method: as §1

Cell Line | relative viability (Sulindac + Navitoclax; first compound 0.08 µM) | relative viability (Sulindac + Navitoclax; first compound 0.253 µM) | relative viability (Sulindac + Navitoclax; first compound 0.8 µM) | relative viability (Sulindac + Navitoclax; first compound 2.53 µM) | relative viability (Sulindac + Navitoclax; first compound 8 µM) | relative viability ([1]; first compound 0.02 µM) | relative viability ([1]; first compound 0.2 µM) | relative viability ([1]; first compound 0.6325 µM) | relative viability ([1]; first compound 2 µM) | relative viability ([2]; first compound 0.02 µM) | relative viability ([2]; first compound 0.2 µM) | relative viability ([2]; first compound 0.6325 µM) | relative viability ([2]; first compound 2 µM) | relative viability ([3]; first compound 0.02 µM) | relative viability ([3]; first compound 0.2 µM) | relative viability ([3]; first compound 0.6325 µM) | relative viability ([3]; first compound 2 µM)
LC-2-ad | 0.384 | 0.495 | 0.548 | 0.434 | 0.564 | 0.445 | 0.441 | 0.296 | 0.186 | 0.443 | 0.382 | 0.365 | 0.293 | 0.878 | 0.884 | 0.514 | 0.339
LCLC-97TM1 | 0.566 | 0.397 | 0.386 | – | 0.351 | 0.463 | 0.525 | 0.222 | 0.212 | 0.223 | 0.271 | 0.181 | 0.199 | 0.205 | 0.224 | 0.208 | 0.161
LK-2 | 1.03 | 0.91 | 0.722 | 0.768 | 0.891 | 1.06 | 0.939 | 0.652 | 0.603 | 0.169 | 0.176 | 0.16 | 0.189 | 1.3 | 0.606 | 0.803 | 0.578
LOU-NH91 | 0.726 | 0.772 | 0.552 | 0.638 | 0.748 | 0.732 | 0.637 | 0.455 | 0.283 | 0.701 | 0.705 | 0.564 | 0.243 | 0.679 | 0.706 | 0.57 | 0.466
LU99A | 0.964 | 0.781 | 0.689 | 0.73 | 0.878 | 0.755 | 0.795 | 0.686 | 0.563 | 0.325 | 0.243 | 0.269 | 0.207 | 0.495 | 0.566 | 0.47 | 0.353
LXF-289 | 1 | 0.97 | 0.953 | 0.999 | 0.965 | 0.881 | 0.625 | 0.387 | 0.283 | 0.189 | 0.164 | 0.134 | 0.138 | 1.03 | 0.595 | 0.353 | 0.286
NCI-H23 | 0.809 | 0.84 | 0.785 | 0.84 | 0.923 | 0.807 | 0.845 | 0.653 | 0.338 | 0.544 | 0.327 | 0.318 | 0.189 | 0.687 | 0.728 | 0.425 | 0.312
NCI-H322M | 1.28 | 1.37 | 1.08 | 1.27 | 1.29 | 1.29 | 1.07 | 0.853 | 0.693 | 0.511 | 0.495 | 0.391 | 0.323 | 0.772 | 0.785 | 0.609 | 0.5
NCI-H441 | 0.395 | 0.588 | 0.519 | 0.478 | 0.822 | 1 | 0.502 | 0.507 | 0.409 | 0.701 | 0.468 | 0.372 | 0.343 | 0.792 | 0.644 | 0.563 | 0.411
